Source: PubChem BioAssay (NCI)
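Protocol summary: plate cells (96-well), add compound at 5 concentrations, incubate 48 h, interpolate endpoints linearly. TGI: concentration producing complete growth inhibition.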

Assays:
Experiment in all cases: inhibition of tumour cell growth, NCI panel, 48 h
DLD-1 colon = test system: DLD-1 colon
KM20L2 colon = test system: KM20L2 colon
DMS 114 small cell lung = test system: DMS 114 small cell lung
NCI-H226 lung = test system: NCI-H226 lung
DMS 273 small cell lung = test system: DMS 273 small cell lung
LXFL 529 NSCLC = test system: LXFL 529 NSCLC
M19-MEL melanoma = test system: M19-MEL melanoma
K-562 leukemia = test system: K-562 leukemia
XF 498 CNS = test system: XF 498 CNS
SK-MEL-28 melanoma = test system: SK-MEL-28 melanoma
U251 CNS = test system: U251 CNS
SW-620 colon = test system: SW-620 colon
RXF-631 renal = test system: RXF-631 renal
UO-31 renal = test system: UO-31 renal
SNB-78 CNS = test system: SNB-78 CNS
HOP-18 NSCLC = test system: HOP-18 NSCLC

| SMILES | TGI (DLD-1 colon) [µM] | TGI (KM20L2 colon) [µM] | TGI (DMS 114 small cell lung) [µM] | TGI (NCI-H226 lung) [µM] | TGI (DMS 273 small cell lung) [µM] | TGI (LXFL 529 NSCLC) [µM] | TGI (M19-MEL melanoma) [µM] | TGI (K-562 leukemia) [µM] | TGI (XF 498 CNS) [µM] | TGI (SK-MEL-28 melanoma) [µM] | TGI (U251 CNS) [µM] | TGI (SW-620 colon) [µM] | TGI (RXF-631 renal) [µM] | TGI (UO-31 renal) [µM] | TGI (SNB-78 CNS) [µM] | TGI (HOP-18 NSCLC) [µM] |
| --- | --- | --- | --- | --- | --- | --- | --- | --- | --- | --- | --- | --- | --- | --- | --- | --- |
| CC(C)(C)c1cc(N=NC(=S)NCc2ccccc2)cc(C(C)(C)C)c1O | > 100 | > 100 | > 100 | > 100 | > 100 | > 100 | > 100 | > 100 | > 100 | > 100 | > 100 | > 100 | > 100 | > 100 |  |  |
| c1ccc2c(NCCCCCCCCNc3cccc4ccccc34)cccc2c1 | > 100 | > 100 | 68.2 | > 100 | 80.6 | 38.1 | > 10 | 80.9 | > 100 | 40.3 | > 100 | 40 | 34.5 | > 100 | > 100 | 58.6 |
| COc1ccc2c(c1)CC1NC2Cc2ccccc21 (stereo not given) | > 100 | > 100 | > 100 |  |  | > 100 | > 100 | > 100 | > 100 | > 100 | > 100 | > 100 |  | > 100 | > 100 | > 100 |
| O=C(/C=C(\O)C(=O)O)/C=C(\O)c1ccccc1Cl | > 100 | > 100 | > 100 | > 100 | > 100 | > 100 |  | > 100 | > 100 | > 100 | > 100 | > 100 |  | > 100 |  | > 100 |
| CC1C(c2ccccc2)=CCON1c1ccccc1 (stereo not given) | > 100 | > 100 | > 100 | > 100 |  | > 100 | > 100 | > 100 | > 100 | > 100 | > 100 | > 100 |  | > 100 | > 100 |  |
| CC1=C(N(C)C)C(=O)c2nc3n(c2C1=O)CCC3OC(N)=O (stereo not given) | 29.9 | 38.6 | 30.6 | 33.7 | 29.3 |  | 3.12 | 49.8 | 38.8 | 34.4 | 49.9 | 33.6 |  | 31.1 | 40.9 | 32 |
| NC(=S)Nc1nnc(-c2ccc(-c3nnc(NC(N)=S)o3)cc2)o1 | > 100 | > 100 | > 100 | > 100 | > 100 | > 100 | > 100 | > 100 |  | > 100 | > 100 | > 100 |  | > 100 | > 100 | > 100 |
| CC[N+](CC)(CC)Cc1cn(S(=O)(=O)c2ccccc2)c2ccccc12 | > 100 | > 100 | > 100 | > 100 | > 100 |  | > 100 | > 100 | > 100 | > 100 | > 100 | > 100 |  | > 100 |  |  |
| CC(C)[Si](OCC/C=C/C1CCC(=O)C1C(O)C1CCCCC1)(C(C)C)C(C)C (stereo not given) |  |  |  | 30 |  |  |  | 47 |  | 29 | 30.9 | 31.3 |  | 30.2 |  |  |
| BrC12C3C4C5C(C(C43)C13OCCO3)C52 (stereo not given) | > 100 | > 100 | > 100 |  | > 100 | > 100 | > 100 | > 100 | > 100 | > 100 | > 100 | > 100 | > 100 | > 100 | > 100 | > 100 |
| Cc1ccc(S(=O)(=O)Oc2coc(CO)cc2=O)cc1 |  |  |  | > 100 |  |  |  | > 100 |  | 36.6 | 23.7 | 42 |  | 27.3 |  |  |
| CCOC(=O)C1=C(C)C2C3C(=O)NC(=O)C3C1(C)C1C(=O)NC(=O)C21 (stereo not given) | > 100 | > 100 | > 100 | > 100 | > 100 | > 100 | > 100 | > 100 |  | > 100 | > 100 | > 100 |  | > 100 | > 100 | > 100 |
| Clc1ccc2c(Cl)ncnc2c1I | > 100 | > 100 | > 100 | 93.3 | > 100 | > 100 | > 100 | > 100 | > 100 | > 100 | > 100 | > 100 |  | > 100 |  |  |
| COc1ccc2c(c1)-c1c(c3ccccc3n1CCN1CCCCC1)CC2 |  |  |  | 37.5 |  |  |  | 18 |  | 99.2 | 56.7 | 81.2 |  | 30 |  |  |
| COc1c(C(CC(C)C)OC(C)=O)ccc2c1C(=O)OCc1cc(C)cc(O)c1O2 (stereo not given) |  |  |  | 30 |  |  |  | > 100 |  | 29.4 | 28.1 | 31.5 |  | 19.7 |  |  |
